Measured values reported in patent US20100317850A1 (priority 2008, published 2010).

System: Aβ42 production
Experiment: Quantification of Aβ peptide in culture of neurons from rat fetus brain (Aβ ELISA)
Format: cell-based
Conditions: Neuron, 72 h; rat primary neuronal culture (cerebral cortex, embryonic day 18 Wistar rats); medium collected three days after addition of the compound; Aβx-42 ELISA; read-out: Aβ42 production reducing effect IC50
How it was run: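 Primary cortical neurons from embryonic day 18 Wistar rats were cultured 4 days, then exposed to compound in Neurobasal/B27 without 2-ME, final DMSO ≤1%. After three days, medium was collected and Aβx-42 measured undiluted by sandwich ELISA.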

Row | SMILES | IC50 [nM]
1 | COC[C@H]1C[C@]2(c3cc(NC(=O)c4ccc(C#N)cn4)ccc3F)N=C(N)SC[C@@H]2CO1 [Example 39, N-[3-((4aS,7R,8aS)-2-amino-7-methoxymethyl-4a,5,7,8-tetrahydro-4H-6-oxa-3-thia-1-azanaphthalen-8a-yl)-4-fluorophenyl]-5-cyanopyridine-2-carboxamide] | 7
2 | C[C@H]1OC[C@]2(c3cc(NC(=O)c4ccc(Cl)cn4)ccc3F)N=C(N)SC[C@H]12 (relative stereo) [Example 56, N-[3-((4aS*,5R*,7aS*)-2-amino-5-meth 1-4a,5-dihydro-4H-furo[3,4-d][1,3]thiazin-7a-yl)-4-fluorophenyl]-5-chloropyridine-2-carboxamide] | 3
3 | CO[C@@H]1CC[C@]2(c3cc(NC(=O)c4ccc(C#N)cn4)ccc3F)N=C(N)SC[C@H]12 (relative stereo) [Example 65, N-[3-((4aS*,5R*,7aS*)-2-amino-5-methoxy-4a,5,6,7-tetrahydro-4H-cyclopenta[d][1,3]thiazin-7a-yl)-4-fluorophenyl]-5-cyanopyridine-2-carboxamide] | 38
4 | NC1=N[C@@]2(c3cc(NC(=O)c4ncc(Cl)cc4Cl)ccc3F)CCC[C@H]2CS1 (single isomer, unassigned) [Example 180, N-[3-((4aR*,7aS*)-2-amino-4a,5,6,7-tetrahydro-4H-cyclopenta[d][1,3]thiazin-7a-yl)-4-fluorophenyl]-3,5-dichloropyridine-2-carboxamide] | 3
5 | N#Cc1ccc(C(=O)Nc2ccc(F)c([C@]34CO[C@H](CF)[C@H]3CSC(N)=N4)c2)nc1 [Example 164, N-[3-((4aS,5S,7aS)-2-amino-5-fluoromethyl-4a,5-dihydro-4H-furo[3,4-d][1,3]thiazin-7a-yl)-4-fluorophenyl]-5-cyanopyridine-2-carboxamide] | 1
6 | NC1=N[C@@]2(c3cc(NC(=O)c4ncccc4C(F)(F)F)ccc3F)CCCCC[C@H]2CS1 [Example 252] | 187
7 | C[C@H]1OC[C@]2(c3cc(NC(=O)c4ccc(C#N)cn4)ccc3F)N=C(N)SC[C@H]12 (relative stereo) [Example 54, N-[3-((4aS*,5R*,7aS*)-2-amino-5-methyl-4,5-dihydro-4H-furo[3,4-d][1,3]thiazin-7a-yl-4-fluorophenyl]-5-cyanopyridine-2-carboxamide] | 1.7
8 | CO[C@H]1C[C@H]2CSC(N)=N[C@@]2(c2cc(NC(=O)c3ccc(C#N)cn3)ccc2F)C1 (relative stereo) [Example 31, (+)-N-[3-((4aR*,6S*,7aS*)-2-amino-6-methoxy-4a,5,6,7-tetrahydro-4H-cyclopenta[d][1,3]thiazin-7a-yl)-4-fluorophenyl]-5-cyanopyridine-2-carboxamide] | 4
9 | COc1ccc(C(=O)Nc2ccc(F)c([C@]34CCC[C@H]3CSC(N)=N4)c2)nc1 (single isomer, unassigned) [Example 174, N-[3-((4aR*,7aS*)-2-amino-4a,5,6,7-tetrahydro-4H-cyclopenta[d][1,3]thiazin-7a-yl)-4-fluorophenyl]-5-methoxypyridine-2-carboxamide] | 11
10 | NC1=N[C@@]2(c3cc(NC(=O)c4cnc(OCC(F)F)cn4)ccc3F)CCC[C@H]2CS1 (single isomer, unassigned) [Example 181, N-[3-((4aR*,7aS*)-2-amino-4a,5,6,7-tetrahydro-4H-cyclopenta[d][1,3]thiazin-7a-yl)-4-fluorophenyl]-5-(2,2-difluoroethoxy)-pyrazine-2-carboxamide] | 47
11 | NC1=N[C@@]2(c3cccc(-c4cccnc4F)c3)CN(c3ccc(F)cc3)C[C@H]2CS1 (racemic) [Example 226, (±)-(4aR*,7aS*)-6-(4-fluorophenyl)-7a-[3-(2-fluoropyridin-3-yl)phenyl]-4,4a,5,6,7,7a-hexahydropyrrolo[3,4-d][1,3]thiazin-2-ylamine] | 233
12 | NC1=N[C@@]2(c3cc(NC(=O)c4cnc(C(F)F)cn4)ccc3F)CCOC[C@H]2CS1 (relative stereo) [Example 79, N-[3-((4aS*,8aS*)-2-amino-4a,5,7,8-tetrahydro-4H-6-oxa-3-thia-1-azanaphthalen-8a-yl)-4-fluorophenyl]-5-difluoromethylpyrazine-2-carboxamide] | 28
13 | CO[C@H]1C[C@H]2CSC(N)=N[C@@]2(c2cc(NC(=O)c3cnc(C(F)F)cn3)ccc2F)C1 (relative stereo) [Example 92, (+)-N-[3-((4aR*,6S*,7aS*)-2-amino-6-methoxy-4a,5,6,7-tetrahydro-4H-cyclopenta[d][1,3]thiazin-7a-yl)-4-fluorophenyl]-5-difluoromethylpyrazine-2-carboxamide] | 5
14 | NC1=N[C@@]2(c3cc(NC(=O)c4ccc(OCC(F)F)cn4)ccc3F)CCC[C@H]2CS1 (single isomer, unassigned) [Example 182, N-[3-((4aR*,7aS*)-2-amino-4a,5,6,7-tetrahydro-4H-cyclopenta[d][1,3]thiazin-7a-yl)-4-fluorophenyl]-5-(2,2-difluoroethoxy)-pyridine-2-carboxamide] | 90
15 | COc1cnc(C(=O)Nc2ccc(F)c([C@]34CCC[C@H]3CSC(N)=N4)c2)cn1 (single isomer, unassigned) [Example 177, N-[3-((4aR*,7aS*)-2-amino-4a,5,6,7-tetrahydro-4H-cyclopenta[d][1,3]thiazin-7a-yl)-4-fluorophenyl]-5-methoxypyrazine-2-carboxamide] | 18
16 | CO[C@@H]1C[C@H]2CSC(N)=N[C@@]2(c2cc(NC(=O)c3cnc(C(F)F)cn3)ccc2F)C1 (relative stereo) [Example 93, (+)-N-[3-((4aR*,6R*,7aS*)-2-amino-6-methoxy-4a,5,6,7-tetrahydro-4H-cyclopenta[d][1,3]thiazin-7a-yl)-4-fluorophenyl]-5-difluoromethylpyrazine-2-carboxamide] | 3
17 | NC1=N[C@@]2(c3cc(NC(=O)c4ccccn4)ccc3F)CCC[C@H]2CS1 (relative stereo) [Example 6, N-[3-((4aR*,7aS*)-2-amino-4a,5,6,7-tetrahydro-4H-cyclopenta[d][1,3]thiazin-7a-yl)-4-fluorophenyl]pyridine-2-carboxamide] | 88
18 | NC1=N[C@@]2(c3cc(NC(=O)c4ccc5cnccc5n4)ccc3F)CCC[C@H]2CS1 [Example 138] | 63
19 | CCOC(=O)c1cnc(C(=O)Nc2ccc(F)c([C@]34CCC[C@H]3CSC(N)=N4)c2)nc1 [Example 128] | 231
20 | NC1=N[C@@]2(c3cc(NC(=O)c4ncc(F)cc4F)ccc3F)CCC[C@H]2CS1 (single isomer, unassigned) [Example 168, N-[3-((4aR*,7aS*)-2-amino-4a,5,6,7-tetrahydro-4H-cyclopenta[d][1,3]thiazin-7a-yl)-4-fluorophenyl]-3,5-difluoropyridine-2-carboxamide] | 16
21 | NC1=N[C@@]2(c3cc(NC(=O)c4ccc(-c5nccs5)cn4)ccc3F)CCC[C@H]2CS1 (single isomer, unassigned) [Example 133, N-[3-((4aR*,7aS*)-2-amino-4a,5,6,7-tetrahydro-4H-cyclopenta[d][1,3]thiazin-7a-yl)-4-fluorophenyl]-5-thiazol-2-yl-pyridine-2-carboxamide] | 63
